Assay results from the SangsterLogP compilation.

Experiment: method code SF-AS, from DOI: 10.1007/bf00500963, PMID: 600309
In the case of `Clc1cccc(Br)c1N=C1NCCN1`, the logP is reported as 1.73.
`O=[N+]([O-])c1cc(Cl)c(N=C2NCCN2)c(Cl)c1` showed a logP of 2.1.
`Cc1cc(Cl)cc(C)c1N=C1NCCN1` gave a logP of 2.5.
For `Cc1ccc(N=C2NCCN2)c(C)c1`, the logP was 1.78.
With `Fc1cccc(Cl)c1N=C1NCCN1` the logP was 1.45.
Molecule `Cc1cc(C)c(N=C2NCCN2)c(Cl)c1` has a logP of 2.1.
`Cc1cc(C)c(N=C2NCCN2)c(C)c1` showed a logP of 2.32.
`Clc1ccccc1N=C1NCCN1` showed a logP of 1.36.
In the case of `Clc1cc(Br)cc(Cl)c1N=C1NCCN1`, the logP is reported as 2.66.
In the case of `Clc1cccc(NC2=NCCN2)c1Cl`, the logP is reported as 2.01.
`CCc1cccc(CC)c1N=C1NCCN1` showed a logP of 2.6.
For `Cc1ccccc1N=C1NCCN1`, the logP was 1.28.
`Brc1cc(Br)c(N=C2NCCN2)c(Br)c1` gave a logP of 2.74.
Molecule `Cc1cc(Cl)c(NC2=NCCN2)c(Cl)c1` has a logP of 1.92.
`COc1cc(Cl)c(N=C2NCCN2)c(Cl)c1` gave a logP of 1.6.
`Cc1cc(Cl)cc(Cl)c1N=C1NCCN1` gave a logP of 2.38.
For `Clc1ccc(Cl)c(N=C2NCCN2)c1`, the logP was 2.04.
`Clc1cccc(Cl)c1N=C1NCCN1` showed a logP of 1.59.
In the case of `Cc1cc(Br)cc(C)c1N=C1NCCN1`, the logP is reported as 2.8.
